Data on one compound can be found in patent US20210002371A1, “COMBINATION OF AN ANTI-PD-L1 ANTIBODY AND IDO1 INHIBITOR FOR THE TREATMENT OF CANCER” (Merck Patent GmbH, priority 2017, published 2021).

Experiment [1] concerns IDO1 expressing mDCs co-cultured with PBMCs. Description: One-way Mixed Lymphocyte Reaction (MLR) assay, IFNγ production by ELISA. It counts as cell-based, human. Particulars: M4112 5 μM, avelumab 0.61-10000 ng/mL. The method, then: High levels of IDO1 in mDCs correlate with suppressed avelumab activity (IFNγ production) in the one-way MLR assay, which is reversed in an avelumab dose-dependent manner when M4112 is used in combination. Prior to the one-way MLR assay, imDCs from donor 17988 were treated with 1 μg/mL LPS for two days to obtain mDCs. Cells were stained with either an isotype control Phycoerythrin (PE) antibody or an anti-IDO1-PE antibody. (A-B) Stained cells were analyzed via FACS. Purple (solid curve) represents isotype control stained cells and green (transparent curve) represents IDO1-PE stained cells. […] On (C) Day 4 (Experiment A) or (D) Day 3 (Experiment B) of the MLR assay, IFNγ levels ([…]) were measured in the co-culture supernatant via IFNγ ELISA. […]
This example describes the in vitro characterization of M4112, alone and in combination with the anti-tumor compound avelumab, using one-way Mixed Lymphocyte Reaction (MLR) assays. […] Using this functional assay, the immune IDO1 expressing cells (mDCs) were cultured with PBMCs in the presence or absence of the IDO1/TDO2 inhibitor, M4112, and the immune response was evaluated by looking at IFNγ production. […]
A one-way MLR assay was performed with a 2.3:1 ratio of PBMC to mDC (stimulated with LPS) under two different conditions. […] Both experiments measured the change in IFNγ concentration using the optical density of a standard curve from an ELISA.
Background: An ELISA detects its analyte on a solid surface through an enzyme-linked reagent.

For experiment [2], the system named is MC38 colon carcinoma cells. Put plainly: Anti-tumor efficacy in MC38 tumor-bearing mice (s.c. colon carcinoma model). It counts as in vivo, C57BL/6 female mice. The settings on record: Day 24; M4112 200 mg/kg p.o. 2x/day for 4 weeks; avelumab 400 μg i.v. Days 0, 2, 4; control = M4112 vehicle + isotype control. As to the method: (§1) Tumor growth data are presented in graphical form as the mean and standard error of the mean (SEM) of tumor volumes every 3 or 4 days. Two-way repeated measures analysis of variance (RM ANOVA) with Tukey's post-test was performed to assess differences in tumor volumes between treatment groups. Treatment/Control (T/C) values were calculated as the mean tumor volume of the treatment group divided by the mean tumor volume of the control group on the last day of observation and are expressed as percentages. In all cases, p<0.05 was considered statistically significant. Kaplan Meier survival curves were analyzed by Log-Rank (Mantel-Cox) test. A Bonferroni-corrected significance threshold of p<0.0125 was used to account for multiple comparisons.
The combination treatment of avelumab and M4112 in the MC38 murine model was undertaken to evaluate the anti-tumor activity in C57BL/6 mice. […] The tumor volume, mice survival and mouse body weight were measured.
MC38 cells were cultured in DMEM containing 4.5 g/L D-glucose, 2 mM glutamine, and 110 mg/L sodium pyruvate and supplemented with 10% FBS, 0.1 mM MEM NEAA, and penicillin/streptomycin. […] Cells were harvested by trypsinization with TrypLE Express and viable cell counts were determined using a Countess or hematocrit chamber cell counter and trypan blue exclusion staining. […]

Experiment [3] concerns CT26-KSA colon carcinoma cells. Description: Anti-tumor efficacy in CT26-KSA tumor-bearing mice (s.c. colon carcinoma model). It counts as in vivo, BALB/c female mice. Particulars: M4112 200 mg/kg p.o. 2x/day for 3 weeks, avelumab 400 μg i.v. Days 0, 3, 6. As to the method: as §1
The combination treatment of avelumab and M4112 in a CT26-KSA murine model was undertaken to evaluate the anti-tumor activity in BALB/c mice. […] The tumor volume, mice survival and mouse body weight were measured. […]
CT26-KSA cells were cultured in RPMI-1640 medium containing 10% FBS, 2 mM L-glutamine, 0.1 mM non-essential amino acids (NEAA), 1 mM Na Pyruvate, 1% MEM vitamin solution and 1% G418 antibiotic (1 mg/mL). […] Cells were harvested by trypsinization with TrypLE Express and viable cell counts were determined using a Countess or hematocrit chamber cell counter and trypan blue exclusion staining. […]

In the case of `NS(=O)(=O)[C@H]1CC[C@](F)(CC[C@H]2c3ccccc3-c3cncn32)CC1` [Compound M4112, c-4-fluoro-t-4-[(S)-2-(5H-imidazo[5,1-a]isoindol-5-yl)-ethyl]-cyclohexane-r-1-sulfonic acid amide], the “avelumab activity (IFNγ production) in MLR” value in experiment [1] (Experiment A: IDO1-high mDCs, Day 4) was “the activity of avelumab was restored to normal levels”; in experiment [1] (Experiment B: IDO1-low mDCs, Day 3), “no change in avelumab activity”. Further, the “T/C (mean tumor volume of treatment group / mean tumor volume of control group)” value came out at 72% in experiment [2] and 78% in experiment [3] (Day 21, control = M4112 vehicle + isotype control). Moreover, in experiment [3] (CT26-KSA tumor-bearing mice), the median survival time amounted to 30.5 days.
